Each structure is given as a SMILES string. Residues, ends and D or L forms follow the SMILES beside them. *: point of attachment. Hydrocinnamoyl = O=C(CCc1ccccc1)*; Cbz = O=C(OCc1ccccc1)*

The target of this assay is T1, Caspase-1 (Homo sapiens, UniProt P29466).
T1 sequence (P29466 whole entry): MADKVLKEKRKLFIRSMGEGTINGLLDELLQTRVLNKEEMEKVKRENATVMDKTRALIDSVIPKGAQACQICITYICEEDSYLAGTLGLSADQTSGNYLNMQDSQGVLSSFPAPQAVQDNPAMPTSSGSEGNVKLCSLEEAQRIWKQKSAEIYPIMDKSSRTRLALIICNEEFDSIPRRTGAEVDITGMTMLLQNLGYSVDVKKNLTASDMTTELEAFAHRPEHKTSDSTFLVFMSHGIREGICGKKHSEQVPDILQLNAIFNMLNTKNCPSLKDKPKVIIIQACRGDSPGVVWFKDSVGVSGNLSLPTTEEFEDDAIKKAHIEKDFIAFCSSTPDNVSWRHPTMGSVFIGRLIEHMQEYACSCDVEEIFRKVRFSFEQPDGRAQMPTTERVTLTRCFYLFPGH
Put plainly: Inhibition of IL-1 beta converting enzyme.
With `O=C[C@H](CC(=O)O)NC(=O)Cn1c(-c2ccccc2)ccc(NC(=O)CCc2ccccc2)c1=O`, the Ki was 0.9 µM.
The same measure for `CC(C)[C@H](NC(=O)CCc1ccccc1)C(=O)N[C@@H](C)C(=O)N[C@@H](CC(=O)O)C(=O)O` (Hydrocinnamoyl-Val-Ala-Asp-OH): 0.054 µM; for `CC(C)[C@H](NC(=O)OCc1ccccc1)C(=O)N[C@@H](C)C(=O)N[C@@H](CC(=O)O)C(=O)O` (Cbz-Val-Ala-Asp-OH): 0.055 µM.
For the compound `CC(=O)NC(C(=O)Nc1ccc(Cc2ccccc2)n(CC(=O)N[C@H](C=O)CC(=O)O)c1=O)c1ccc(O)cc1` (stereo partly specified), the Ki stood at 0.054 µM.
The same measure for `CC(=O)N[C@@H](Cc1ccc(O)cc1)C(=O)N[C@H](C(=O)N[C@@H](C)C(=O)N[C@@H](CC(=O)O)C(=O)O)C(C)C`: 0.009 µM.
Compound `CC(C)[C@H](NC(=O)OCc1ccccc1)C(=O)NCC(=O)N[C@@H](CC(=O)O)C(=O)O` (Cbz-Val-Gly-Asp-OH) gave a Ki of 1.3 µM.

For the origin of these results see ChEMBL document CHEMBL1130512, “Structure-based design of non-peptidic pyridone aldehydes as inhibitors of interleukin-1 converting enzyme” (Bioorg Med Chem Lett, 1997).
